One experiment relates to MMP-1. Briefly: MMP-1 expression in human dermal fibroblasts, Western blot. Type of experiment: cell-based. As to conditions: for MMP-1 expression: 48 hours.
The next experiment concerns MMP-2. Briefly: MMP-2 expression in human dermal fibroblasts, Western blot. Type of experiment: cell-based. The note with it: various concentrations, 48 hours. As to the method: In another set of experiments, fibroblasts at 80% confluence were treated with either kynurenine or tryptophan at the indicated concentrations as mentioned in the result section in DMEM containing 2% FBS and antibiotics for 48 hours. Cells were then harvested by trypsinization and western blot analysis was performed.
(§1) Cells were harvested by Trypsin/EDTA and lysed with cell lysis buffer containing 50 mM Tris-HCl (pH7.40), 150 mM NaCl, 10 mM EDTA, 5 mM EGTA, 1% TritonX-100™, 0.5% Igepal CA-630, 0.025% NaN3 and protease inhibitor cocktail (Sigma™). Cell debris was removed by centrifugation at 20,000×g for 10 minutes. The protein concentration in supernatant was determined using the MicroBCA™ method (Pierce™, Rockford, Ill.). Proteins in supernatant were mixed with protein sample loading buffer (final concentration: 60 mM Tris-HCl (pH 6.80), 2% SDS, 10% glycerol, 1.5% β-mercaptoethanol, 0.002% bromophenol blue) and size fractioned by 10% of SDS-polyacrylamide gel. After proteins were transferred onto nitrocellulose membrane by iBlot™ (Invitrogen Life Technologies™), non-specific binding were blocked with phosphate buffer saline twenty 20 (PBS-T) containing 5% skim milk for 1 hour. The membrane was then incubated with primary antibody overnight. […]

The next experiment deals with IMR-90. Nature of the experiment: MMP-1 expression in lung fibroblast cell line IMR-90, Western blot. Format: cell-based, human. The note with it: IMR-90, 12.5 μg/ml to 150 μg/ml, 48 hours. As to the method: (§2) The squamous cell carcinoma (UMSCC) cell line derived from patients with head and neck cancer (ATCC™, Manassas, Va.) were maintained in RPMI-1640 medium with 10% FBS. The Human keratinocyte cell line HACAT (ATCC) and the carcinomic human alveolar basal epithelial cell line A549 (ATCC™) were cultured in DMEM with 10% FBS. The diploid lung fibroblasts IMR-90 (ATCC™) were maintained in Minimum Essential Medium (MEM, Invitrogen™) with 10% FBS.
(§3) Similarly, other cells such as synoviocytes, IMR-90, keratinocytes, UMSCC and A549 were treated with kynurenine at concentrations of 12.5 to 150 μg/ml in appropriate media for each cell type as described above for 48 hours. Cells were then harvested for western blot analysis.
as §1, with “gel.” for “gel. After proteins were transferred onto nitrocellulose membrane by iBlot™ (Invitrogen Life Technologies™), non-specific binding were blocked with phosphate buffer saline twenty 20 (PBS-T) containing 5% skim milk for 1 hour. The membrane was then incubated with primary antibody overnight.”
In general terms: In western blotting, separated proteins are transferred to a membrane and probed.

Another experiment relates to dermal keratinocytes. Briefly: MMP-1 expression in primary dermal keratinocytes, Western blot. Type of experiment: cell-based, human. The note with it: 12.5 to 150 μg/ml, 48 hours. How it is done: Human foreskin keratinocytes were established as previously described (Ghahary et al., 1998). Cells were cultured in serum-free keratinocyte medium (KSFM; Invitrogen Life Technologies™) supplemented with bovine pituitary extract (50 μg/ml) and EGF (0.2 ng/ml). These cells were used at passages 2-5.
as §3
as §1, with “gel.” for “gel. After proteins were transferred onto nitrocellulose membrane by iBlot™ (Invitrogen Life Technologies™), non-specific binding were blocked with phosphate buffer saline twenty 20 (PBS-T) containing 5% skim milk for 1 hour. The membrane was then incubated with primary antibody overnight.”

Another experiment relates to HACAT. Nature of the experiment: MMP-1 expression in keratinocyte cell line HACAT, Western blot. Type of experiment: cell-based, human. As to conditions: 12.5 to 150 μg/ml, 48 hours. How it is done: as §2, §3
as §1, with “gel.” for “gel. After proteins were transferred onto nitrocellulose membrane by iBlot™ (Invitrogen Life Technologies™), non-specific binding were blocked with phosphate buffer saline twenty 20 (PBS-T) containing 5% skim milk for 1 hour. The membrane was then incubated with primary antibody overnight.”

The subject of experiment [1] is ERK1/2. Nature of the experiment: Human phospho-kinase array in dermal fibroblasts. Type of experiment: cell-based. As to conditions: 100 μg/ml, after 1 hour of treatment. As to the method: Protein phosphorylation was evaluated using the Human Phospho-Kinase Array™ (R&D System™) according to the manufacturer's instructions. Briefly, capture and control antibodies were spotted in duplicate on nitrocellulose membranes (total 46 kinase phosphorylation sites). Cell lysates (300 μg of total protein per array) were incubated with array overnight. The array was washed to remove unbound proteins, followed by incubation with the cocktail of biotinylated detection antibodies. After incubation with streptavidin-HPR for 30 minutes, signals were visualized by ECL detection system (Santa Cruz™). Blots were analyzed by densitometry, and protein Phosphorylation was Normalized to a Positive Control which was Represented in Each Membrane.

The subject of experiment [2] is ERK1/2. Nature of the experiment: ERK1/2 phosphorylation in dermal fibroblasts, Western blot. As to conditions: 100 μg/ml. Format: cell-based, human. How it is done:
as §1, with “overnight. After incubation with a secondary antibody for 1 hour, protein bands were visualized by an enhanced chemiluminescence (ECL™) detection system (Santa Cruz Biotechnology™, Santa Cruz, Calif.).” for “overnight.”

A further experiment concerns MEK. Nature of the experiment: MEK phosphorylation in dermal fibroblasts, Western blot. Format: cell-based, human. As to conditions: 100 μg/ml. How it is done:
as §1, with “overnight. After incubation with a secondary antibody for 1 hour, protein bands were visualized by an enhanced chemiluminescence (ECL™) detection system (Santa Cruz Biotechnology™, Santa Cruz, Calif.).” for “overnight.”

For a further experiment, the system named is type 1 procollagen. Nature of the experiment: Type 1 procollagen expression in dermal fibroblasts, Western blot. The note with it: 25-150 μg/ml, 48 hours. Type of experiment: cell-based, human. How it is done: Cell debris was removed by centrifugation at 20,000×g for 10 minutes. The protein concentration in supernatant was determined using the MicroBCA™ method (Pierce™, Rockford, Ill.). Proteins in supernatant were mixed with protein sample loading buffer (final concentration: 60 mM Tris-HCl (pH 6.80), 2% SDS, 10% glycerol, 1.5% β-mercaptoethanol, 0.002% bromophenol blue) and size fractioned by 10% of SDS-polyacrylamide gel. After proteins were transferred onto nitrocellulose membrane by iBlot™ (Invitrogen Life Technologies™), non-specific binding were blocked with phosphate buffer saline twenty 20 (PBS-T) containing 5% skim milk for 1 hour. The membrane was then incubated with primary antibody overnight. After incubation with a secondary antibody for 1 hour, protein bands were visualized by an enhanced chemiluminescence (ECL™) detection system (Santa Cruz Biotechnology™, Santa Cruz, Calif.). […] The secondary antibodies were either goat anti-mouse IgG (H+L) HPR conjugate or goat anti-rabbit IgG (H+L) HPR conjugate (Bio-rad Laboratory™ (Mississauga, ON, Canada). Secondary antibodies were used at a concentration of 1:3000.

The next experiment has as its system fibronectin. Briefly: Fibronectin mRNA in human dermal fibroblasts, real-time PCR. Format: cell-based. As to conditions: various concentration. (Quantitative PCR measures a nucleic acid by following its amplification.)
Another experiment has as its system splenocytes. Briefly: ConA-induced splenocyte proliferation. Format: cell-based. The note with it: 100 and 150 μg/ml.
A further experiment concerns mouse splenocytes. Nature of the experiment: Immune factor protein microarray of conditioned media of ConA-activated splenocytes. Format: cell-based. As to conditions: 100 μg/mL, 48 hrs.

SMILES strings stand for the structures.

For the molecule `Nc1ccccc1C(=O)CC(N)C(=O)O` (racemic) [kynurenine], the “MMP1 protein expression 48 hours after treatment removal” value with MMP-1 (100 μg/ml for 48 hours, then 48 hours after removal) is recorded as “gradually reduced to normal levels”. The “MMP1 expression versus untreated cells after treatment removal” value with MMP-1 (100 μg/ml for 48 hours, then another 24 hours after removal) is given as “remained significantly higher”. Moreover, the MMP1 expression entry with MMP-1 (100 μg/ml, at 48 hours after treatment) was “marked increase”. Besides, the MMP-1 expression entry in the experiment on MMP-1 (25-150 μg/ml) is “significantly increased”; in the experiment on MMP-1 (kynurenine isoforms, 50 μg/ml) it was “increase”; with IMR-90 it was “up-regulated”. Also, in the experiment on MMP-1 (dermal fibroblasts, data not shown), the “concentration that could stimulate MMP-1 expression (as little as)” value was found to be 12.5 µg/mL. The “MMP-2 expression versus untreated fibroblasts” value with MMP-2 was “no significant difference”. Moreover, the “MMP-1 expression versus untreated controls” value with dermal keratinocytes and in the experiment with HACAT was “did not significantly differ” throughout. Also, the “ERK1/2 activation (phospho-kinase array)” value in the experiment with ERK1/2 [1] is given as “activated”. Further, the “time of peak ERK1/2 activation” value in the experiment on ERK1/2 [2] amounted to 8 h. For the same molecule, the ERK1/2 phosphorylation entry in the experiment on ERK1/2 [2] (different times) is “phosphorylated”. Moreover, in the experiment on MEK, the “time of peak MEK activation” value was 8 h. Moreover, the MEK phosphorylation result with MEK (different times) was “detection of the ERK1/2 upstream signal molecule MEK phosphorylation”. Also, the “expression of type 1 procollagen” value in the experiment on type 1 procollagen was “remarkably decreases”. Further, in the experiment on fibronectin, the “fibronectin expression (mRNA)” value is on record as “capable of down-regulating”. Also, the “reduction in conA-induced splenocyte proliferation” value in the experiment on splenocytes (after 48 hours) is reported as “about 2 fold”; in the experiment with splenocytes (after 96 hours) it was around 5 fold. Besides, in the experiment on mouse splenocytes, the IL-17 production entry is reported as “significantly decrease”. Moreover, the “proinflammatory cytokine and chemokine production (IL-1, IL-2, CXCL9, CXCL10)” value with mouse splenocytes is recorded as “immune suppressive effect”.

The values above are taken from patent publication US9737523B2, “Anti-fibrogenic compounds, methods and uses thereof” (priority 2013, dated 2017).
